In patent US20020035061A1, “COMPOSITIONS AND METHODS FOR TREATING INFECTIONS USING CATIONIC PEPTIDES ALONE OR IN COMBINATION WITH ANTIBIOTICS” (priority 1996, published 2002):

Key:
Experiment in all cases: microbe, parasite or virus in culture
Assay type in all cases: cell-based
[1] = tested on: microorganisms with acquired resistance
[2] = tested on: vancomycin / teicoplanin resistant enterococci; conditions: for Vancomycin MIC + Peptide: in combination with the labelled peptide; for Peptide MIC + Vancomycin: in combination with vancomycin
[3] = tested on: inherently resistant microorganisms

Question: How did the “Peptide MIC” value ([1]; S. maltophilia, combination with Piperacillin, in µg/mL) turn out when KWKSFIKKLTSAAKKVVTTAKPLISS [MBI 26] was run?
Answer: 32

Question: What about the “Peptide MIC + Piperacillin” value ([1]; S. marcescens 1) of the same sequence?
Answer: 16 µg/mL

Question: And the “Piperacillin MIC + Peptide” value ([1]; S. marcescens 1)?
Answer: 2 µg/mL

Question: And the “Peptide MIC Alone” value ([1]; S. marcescens 1, Piperacillin section)?
Answer: >128 µg/mL

Question: And the FIC ([1]; peptide + Ceftriaxone, A. baumannii ABI005)?
Answer: 0.53

Question: What about the FIC ([1]; peptide + Ceftriaxone, A. baumannii ABI006) of the same sequence?
Answer: 0.56

Question: And the FIC ([1]; peptide + Ceftriaxone, B. cepacia BC003)?
Answer: 0.50

Question: What about the FIC ([1]; peptide + Ceftriaxone, E. cloacae ECL015) of the same sequence?
Answer: 0.19

Question: What about the FIC ([1]; peptide + Ciprofloxacin, A. calcoaceticus 5) of the same sequence?
Answer: 0.38

Question: What about the FIC ([1]; peptide + Ciprofloxacin, E. cloacae 16) of the same sequence?
Answer: 0.38

Question: And the FIC ([1]; peptide + Ciprofloxacin, E. cloacae 17)?
Answer: 0.38

Question: And the FIC ([1]; peptide + Ciprofloxacin, P. aeruginosa 30)?
Answer: 0.09

Question: What about the FIC ([1]; peptide + Ciprofloxacin, P. aeruginosa 31) of the same sequence?
Answer: 0.27

Question: And the FIC ([1]; peptide + Ciprofloxacin, P. aeruginosa PA41)?
Answer: 0.50

Question: And the FIC ([1]; peptide + Ciprofloxacin, P. aeruginosa PA77)?
Answer: 0.56

Question: And the FIC ([1]; peptide + Ciprofloxacin, S. maltophilia 34)?
Answer: 0.25

Question: And the FIC ([1]; peptide + Ciprofloxacin, S. maltophilia 35)?
Answer: 0.50

Question: And the FIC ([1]; peptide + Gentamicin, A. baumannii ABI001)?
Answer: 0.56

Question: And the FIC ([1]; peptide + Gentamicin, A. baumannii ABI002)?
Answer: 0.53

Question: And the FIC ([1]; peptide + Gentamicin, P. aeruginosa PA023)?
Answer: 0.75

Question: And the FIC ([1]; peptide + Gentamicin, P. aeruginosa PA041)?
Answer: 0.75

Question: What about the FIC ([1]; peptide + Gentamicin, S. maltophilia SMA017) of the same sequence?
Answer: 0.52

Question: And the FIC ([1]; peptide + Gentamicin, S. maltophilia SMA019)?
Answer: 0.53

Question: What about the FIC ([1]; peptide + Piperacillin, A. calcoaceticus 2) of the same sequence?
Answer: 0.50

Question: And the FIC ([1]; peptide + Piperacillin, A. calcoaceticus 7)?
Answer: 0.25

Question: And the FIC ([1]; peptide + Piperacillin, E. cloacae 13)?
Answer: 0.16

Question: And the FIC ([1]; peptide + Piperacillin, E. cloacae 19)?
Answer: 0.31

Question: And the FIC ([1]; peptide + Piperacillin, H. influenzae 1)?
Answer: 0.19

Question: And the FIC ([1]; peptide + Piperacillin, H. influenzae 2)?
Answer: 0.19

Question: And the FIC ([1]; peptide + Piperacillin, P. aeruginosa 7)?
Answer: 0.25

Question: What about the FIC ([1]; peptide + Piperacillin, P. aeruginosa 23) of the same sequence?
Answer: 0.27

Question: And the FIC ([1]; peptide + Piperacillin, P. aeruginosa 26)?
Answer: 0.56

Question: And the FIC ([1]; peptide + Piperacillin, S. maltophilia 2)?
Answer: 0.75

Question: What about the FIC ([1]; peptide + Piperacillin, S. maltophilia 4) of the same sequence?
Answer: 0.63

Question: What about the FIC ([1]; peptide + Piperacillin, S. maltophilia 35) of the same sequence?
Answer: 0.26

Question: And the FIC ([1]; peptide + Piperacillin, S. maltophilia 41)?
Answer: 0.52

Question: What about the FIC ([1]; peptide + Piperacillin, S. marcescens 1) of the same sequence?
Answer: 0.09

Question: What about the FIC ([1]; peptide + Tobramycin, P. aeruginosa PA031) of the same sequence?
Answer: 0.75

Question: And the FIC ([1]; peptide + Tobramycin, S. epidermidis SE068)?
Answer: 0.27

Question: What about the FIC ([1]; peptide + Tobramycin, S. epidermidis SE071) of the same sequence?
Answer: 0.50

Question: What about the FIC ([1]; peptide + Tobramycin, S. maltophilia SMA027) of the same sequence?
Answer: 0.50

Question: And the “Peptide MIC Alone” value ([2]; E. faecalis EFS005)?
Answer: >128 µg/mL

Question: And the “Peptide MIC Alone” value ([2]; E. faecalis EFS010)?
Answer: 4 µg/mL

Question: And the “Peptide MIC Alone” value ([2]; E. faecalis EFS011)?
Answer: >128 µg/mL

Question: What about the “MBI 26 Alone (MIC)” value ([2]; E. faecalis VanA strains) of the same sequence?
Answer: 64 µg/mL

Question: What about the “MBI 26 + Teicoplanin (MIC)” value ([2]; E. faecalis VanA strains, in combination with teicoplanin) of the same sequence?
Answer: 8 µg/mL

Question: What about the “Amikacin MIC + Peptide” value ([2]; E. faecium EFM004) of the same sequence?
Answer: 8 µg/mL

Question: What about the “Peptide MIC + Amikacin” value ([2]; E. faecium EFM004) of the same sequence?
Answer: 32 µg/mL

Question: What about the “Peptide MIC Alone” value ([2]; E. faecium EFM004) of the same sequence?
Answer: 64 µg/mL

Question: And the “Peptide MIC Alone” value ([2]; E. faecium EFM004, Amikacin section)?
Answer: 64 µg/mL

Question: And the “Peptide MIC Alone” value ([2]; E. faecium EFM010)?
Answer: 32 µg/mL

Question: What about the “Peptide MIC Alone” value ([2]; E. faecium EFM011) of the same sequence?
Answer: 32 µg/mL

Question: What about the “Amikacin MIC + Peptide” value ([2]; E. faecium EFM020) of the same sequence?
Answer: 8 µg/mL

Question: What about the “Peptide MIC + Amikacin” value ([2]; E. faecium EFM020) of the same sequence?
Answer: 32 µg/mL

Question: And the “Peptide MIC Alone” value ([2]; E. faecium EFM020, Amikacin section)?
Answer: 64 µg/mL

Question: What about the FIC ([2]; Vancomycin + peptide, E. faecalis EFS005) of the same sequence?
Answer: 0.31

Question: What about the FIC ([2]; Vancomycin + peptide, E. faecalis EFS010) of the same sequence?
Answer: 0.27

Question: What about the FIC ([2]; Vancomycin + peptide, E. faecalis EFS011) of the same sequence?
Answer: 0.25

Question: And the FIC ([2]; Vancomycin + peptide, E. faecium EFM004)?
Answer: 0.25

Question: And the FIC ([2]; Vancomycin + peptide, E. faecium EFM010)?
Answer: 0.53

Question: And the FIC ([2]; Vancomycin + peptide, E. faecium EFM011)?
Answer: 0.31

Question: And the “Vancomycin MIC + Peptide” value ([2]; E. faecalis EFS005)?
Answer: 4 µg/mL

Question: And the “Vancomycin MIC + Peptide” value ([2]; E. faecalis EFS010)?
Answer: 1 µg/mL

Question: And the “Vancomycin MIC + Peptide” value ([2]; E. faecalis EFS011)?
Answer: 2 µg/mL

Question: What about the “Vancomycin MIC + Peptide” value ([2]; E. faecium EFM004) of the same sequence?
Answer: 0.125 µg/mL

Question: What about the “Vancomycin MIC + Peptide” value ([2]; E. faecium EFM010) of the same sequence?
Answer: 1 µg/mL

Question: And the “Vancomycin MIC + Peptide” value ([2]; E. faecium EFM011)?
Answer: 2 µg/mL

Question: And the “Peptide MIC + Vancomycin” value ([2]; E. faecalis EFS005)?
Answer: 16 µg/mL

Question: And the “Peptide MIC + Vancomycin” value ([2]; E. faecalis EFS010)?
Answer: 1 µg/mL

Question: And the “Peptide MIC + Vancomycin” value ([2]; E. faecalis EFS011)?
Answer: 32 µg/mL

Question: And the “Peptide MIC + Vancomycin” value ([2]; E. faecium EFM004)?
Answer: 16 µg/mL

Question: And the “Peptide MIC + Vancomycin” value ([2]; E. faecium EFM010)?
Answer: 16 µg/mL

Question: And the “Peptide MIC + Vancomycin” value ([2]; E. faecium EFM011)?
Answer: 8 µg/mL

Question: And the FIC ([2]; peptide + Amikacin, E. faecium EFM004)?
Answer: 0.56

Question: What about the FIC ([2]; peptide + Amikacin, E. faecium EFM020) of the same sequence?
Answer: 0.75

Question: What about the “susceptibility of teicoplanin resistant enterococci to teicoplanin” value ([2]; teicoplanin in combination with peptide) of the same sequence?
Answer: become susceptible to teicoplanin

Question: And the “susceptibility of vancomycin resistant enterococci (VRE) to vancomycin” value ([2]; vancomycin in combination with peptide)?
Answer: become susceptible to vancomycin

Question: And the “MBI 26 MIC + Erythro.” value ([3]; A. calcoaceticus AC001)?
Answer: 8 µg/mL

Question: And the “MBI 26 MIC Alone” value ([3]; A. calcoaceticus AC001)?
Answer: 16 µg/mL

Question: And the “MBI 26 MIC + Vancomycin” value ([3]; E. casseliflavus 97056 VanC)?
Answer: 1 µg/mL

Question: And the “MBI 26 MIC Alone” value ([3]; E. casseliflavus 97056 VanC)?
Answer: 8 µg/mL

Question: What about the “MBI 26 MIC + Vancomycin” value ([3]; E. casseliflavus 97057 VanC) of the same sequence?
Answer: 0.5 µg/mL

Question: And the “MBI 26 MIC Alone” value ([3]; E. casseliflavus 97057 VanC)?
Answer: 2 µg/mL

Question: And the “MBI 26 MIC + Vancomycin” value ([3]; E. casseliflavus 97058 VanC)?
Answer: 0.25 µg/mL

Question: And the “MBI 26 MIC Alone” value ([3]; E. casseliflavus 97058 VanC)?
Answer: 4 µg/mL

Question: What about the “MBI 26 MIC + Vancomycin” value ([3]; E. casseliflavus 97059 VanC) of the same sequence?
Answer: 0.5 µg/mL

Question: What about the “MBI 26 MIC Alone” value ([3]; E. casseliflavus 97059 VanC) of the same sequence?
Answer: 32 µg/mL

Question: And the “MBI 26 MIC + Vancomycin” value ([3]; E. casseliflavus 97060 VanC)?
Answer: 0.25 µg/mL

Question: And the “MBI 26 MIC Alone” value ([3]; E. casseliflavus 97060 VanC)?
Answer: 0.5 µg/mL

Question: What about the “Peptide MIC + Mupirocin” value ([3]; E. coli) of the same sequence?
Answer: 1 µg/mL

Question: What about the “Peptide MIC Alone” value ([3]; E. coli, Mupirocin section) of the same sequence?
Answer: 2 µg/mL

Question: What about the “MBI 26 MIC + Vancomycin” value ([3]; E. gallinarum 97044 VanC) of the same sequence?
Answer: 0.5 µg/mL

Question: And the “MBI 26 MIC Alone” value ([3]; E. gallinarum 97044 VanC)?
Answer: 8 µg/mL

Question: What about the “MBI 26 MIC + Vancomycin” value ([3]; E. gallinarum 97046 VanC) of the same sequence?
Answer: 4 µg/mL

Question: What about the “MBI 26 MIC Alone” value ([3]; E. gallinarum 97046 VanC) of the same sequence?
Answer: 2 µg/mL

Question: And the “MBI 26 MIC + Vancomycin” value ([3]; E. gallinarum 97047 VanC)?
Answer: 8 µg/mL

Question: What about the “MBI 26 MIC Alone” value ([3]; E. gallinarum 97047 VanC) of the same sequence?
Answer: 64 µg/mL

Question: What about the “MBI 26 MIC + Vancomycin” value ([3]; E. gallinarum 97048 VanC) of the same sequence?
Answer: 2 µg/mL

Question: And the “MBI 26 MIC Alone” value ([3]; E. gallinarum 97048 VanC)?
Answer: 2 µg/mL

Question: And the “MBI 26 MIC + Vancomycin” value ([3]; E. gallinarum 97049 VanC)?
Answer: 16 µg/mL

Question: And the “MBI 26 MIC Alone” value ([3]; E. gallinarum 97049 VanC)?
Answer: 64 µg/mL

Question: And the “MBI 26 MIC + Erythro.” value ([3]; K. pneumoniae KP001)?
Answer: 8 µg/mL

Question: What about the “MBI 26 MIC Alone” value ([3]; K. pneumoniae KP001) of the same sequence?
Answer: 16 µg/mL

Question: And the “MBI 26 MIC + Erythro.” value ([3]; K. pneumoniae KP002)?
Answer: 32 µg/mL

Question: And the “MBI 26 MIC Alone” value ([3]; K. pneumoniae KP002)?
Answer: 64 µg/mL

Question: What about the “MBI 26 MIC + Erythro.” value ([3]; P. aeruginosa PA041) of the same sequence?
Answer: 32 µg/mL

Question: And the “MBI 26 MIC Alone” value ([3]; P. aeruginosa PA041)?
Answer: 64 µg/mL

Question: And the “Peptide MIC Alone” value ([3]; P. aeruginosa, Ceftriaxone section)?
Answer: 128 µg/mL

Question: What about the “Peptide MIC + Piperacillin” value ([3]; S. aureus MRSA) of the same sequence?
Answer: 4 µg/mL

Question: What about the “Peptide MIC Alone” value ([3]; S. aureus MRSA, Piperacillin section) of the same sequence?
Answer: 32 µg/mL

Question: What about the “Peptide MIC + Ceftriaxone” value ([3]; S. maltophilia) of the same sequence?
Answer: 2 µg/mL

Question: What about the “Peptide MIC Alone” value ([3]; S. maltophilia, Ceftriaxone section) of the same sequence?
Answer: 8 µg/mL

Question: What about the FIC ([3]; peptide + Amikacin, S. maltophilia) of the same sequence?
Answer: 0.19

Question: And the FIC ([3]; peptide + Ceftriaxone, S. maltophilia)?
Answer: 0.25

Question: And the FIC ([3]; peptide + Mupirocin, E. coli)?
Answer: 0.50

Question: And the FIC ([3]; peptide + Piperacillin, S. aureus MRSA)?
Answer: 0.13
